Measured values taken from ChEMBL document CHEMBL1201862, “PubChem BioAssay data set” (2004).
Active and inactive are the calls of the source.

Columns and labels:
[1] = microbe, parasite or virus in culture; assay type: functional; conditions: Mycobacterium tuberculosis
[2] = blockers of HIV-1 envelope-mediated cell-cell fusion – cherry-pick, dose response (AID 652057); assay type: functional, cell-based
[3] = blockers of HIV-1 ZM109 envelope-driven cell-cell fusion – HeLa effector, CEM target cells, luciferase, cherry-pick, dose response (AID 652058); assay type: functional, cell-based;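 also: luciferase signal from HIV-1 Env mediated cell-cell fusion of effector and target cells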
[4] = HIV-1 AD8 envelope cell-cell fusion blockers – cherry-pick, dose response (AID 652062); assay type: functional, cell-based;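 also: luciferase signal from cell-cell fusion driven by HIV-1 clade B AD8 Env; potency is for inhibitors of fusion seen as a drop in luminescence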
[5] = target: T1, Carboxy-terminal domain RNA polymerase II polypeptide A small phosphatase 1 (Homo sapiens, UniProt Q9GZU7); assay: CTDSP1 inhibitors, concentration-response, biochemical, absorbance readout, ultra-high-throughput screen actives (AID 540297); assay type: functional
T1 sequence (Q9GZU7 whole entry): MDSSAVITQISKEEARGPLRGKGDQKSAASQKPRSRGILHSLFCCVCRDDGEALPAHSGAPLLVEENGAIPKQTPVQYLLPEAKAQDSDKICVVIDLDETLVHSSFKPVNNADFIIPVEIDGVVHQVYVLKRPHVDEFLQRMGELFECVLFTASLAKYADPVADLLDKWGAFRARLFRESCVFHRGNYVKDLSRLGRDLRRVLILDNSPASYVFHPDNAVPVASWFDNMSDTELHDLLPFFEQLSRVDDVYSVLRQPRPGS

[6] = target: T2, Replicative DNA helicase DnaB (Mycobacterium tuberculosis, UniProt P9WMR3); assay: DnaB intein splicing inhibitors, dose response, biochemical, cell-free fluorescence (AID 449749); assay type: functional
T2 sequence (P9WMR3 whole entry): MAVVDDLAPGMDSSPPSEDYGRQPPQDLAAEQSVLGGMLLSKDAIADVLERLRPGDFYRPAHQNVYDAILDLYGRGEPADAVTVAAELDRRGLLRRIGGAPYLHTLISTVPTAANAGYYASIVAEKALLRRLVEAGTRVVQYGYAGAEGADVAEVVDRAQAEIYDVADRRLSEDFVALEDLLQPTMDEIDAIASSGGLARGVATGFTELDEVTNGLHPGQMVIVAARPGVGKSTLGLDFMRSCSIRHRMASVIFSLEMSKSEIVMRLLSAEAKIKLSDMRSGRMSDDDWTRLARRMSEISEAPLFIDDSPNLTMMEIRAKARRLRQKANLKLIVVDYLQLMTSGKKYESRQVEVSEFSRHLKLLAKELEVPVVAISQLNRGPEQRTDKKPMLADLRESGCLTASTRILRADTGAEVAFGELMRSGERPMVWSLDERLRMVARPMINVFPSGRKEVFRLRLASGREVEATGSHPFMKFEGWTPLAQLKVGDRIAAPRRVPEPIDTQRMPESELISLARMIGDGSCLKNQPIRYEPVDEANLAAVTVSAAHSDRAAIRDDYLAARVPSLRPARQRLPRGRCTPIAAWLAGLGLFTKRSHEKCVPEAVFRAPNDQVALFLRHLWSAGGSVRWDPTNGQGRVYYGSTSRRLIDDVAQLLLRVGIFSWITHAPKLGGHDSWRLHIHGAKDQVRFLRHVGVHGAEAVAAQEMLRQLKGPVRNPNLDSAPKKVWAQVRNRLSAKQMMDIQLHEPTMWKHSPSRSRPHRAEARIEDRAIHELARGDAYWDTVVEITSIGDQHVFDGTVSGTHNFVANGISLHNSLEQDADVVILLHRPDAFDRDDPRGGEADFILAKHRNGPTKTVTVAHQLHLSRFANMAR

[7] = target: T3, Protein RecA (Mycobacterium tuberculosis, UniProt P9WHJ3); assay: Fluorescence Cell-Free Homogeneous Dose Retest to Identify Inhibitors of RecA-Intein Splicing Activity. [Related pubchem assays (depositor defined):AID2097, AID2223, AID489010, AID492950]; assay type: functional
T3 sequence (P9WHJ3 whole entry): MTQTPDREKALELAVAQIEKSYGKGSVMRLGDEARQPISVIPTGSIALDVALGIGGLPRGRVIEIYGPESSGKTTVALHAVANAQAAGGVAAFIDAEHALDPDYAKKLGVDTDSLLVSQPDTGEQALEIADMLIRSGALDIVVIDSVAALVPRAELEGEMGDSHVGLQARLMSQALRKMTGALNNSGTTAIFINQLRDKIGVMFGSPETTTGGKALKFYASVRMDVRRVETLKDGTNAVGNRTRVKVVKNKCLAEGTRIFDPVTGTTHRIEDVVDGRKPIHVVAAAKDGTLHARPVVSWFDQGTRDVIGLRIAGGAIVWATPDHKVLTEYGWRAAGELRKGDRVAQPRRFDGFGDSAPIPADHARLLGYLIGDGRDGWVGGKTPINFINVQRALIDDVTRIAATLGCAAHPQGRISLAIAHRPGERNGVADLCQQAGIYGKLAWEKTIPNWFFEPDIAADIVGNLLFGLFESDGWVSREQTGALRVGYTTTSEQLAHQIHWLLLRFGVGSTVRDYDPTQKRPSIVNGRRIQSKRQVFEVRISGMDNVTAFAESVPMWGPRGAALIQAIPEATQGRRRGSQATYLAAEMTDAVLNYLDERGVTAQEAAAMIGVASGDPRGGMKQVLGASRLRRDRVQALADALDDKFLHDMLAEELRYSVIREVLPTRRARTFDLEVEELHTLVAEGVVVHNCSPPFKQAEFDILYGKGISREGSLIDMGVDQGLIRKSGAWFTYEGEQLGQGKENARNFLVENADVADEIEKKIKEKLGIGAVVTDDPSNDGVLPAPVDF

[8] = target: T4, High affinity choline transporter 1 (Homo sapiens, UniProt Q9GZV3); assay: human choline transporter blockers, potency – cell-based, 5-point CRC, membrane potential dye, dose response (AID 504840); assay type: functional
T4 sequence (Q9GZV3 whole entry): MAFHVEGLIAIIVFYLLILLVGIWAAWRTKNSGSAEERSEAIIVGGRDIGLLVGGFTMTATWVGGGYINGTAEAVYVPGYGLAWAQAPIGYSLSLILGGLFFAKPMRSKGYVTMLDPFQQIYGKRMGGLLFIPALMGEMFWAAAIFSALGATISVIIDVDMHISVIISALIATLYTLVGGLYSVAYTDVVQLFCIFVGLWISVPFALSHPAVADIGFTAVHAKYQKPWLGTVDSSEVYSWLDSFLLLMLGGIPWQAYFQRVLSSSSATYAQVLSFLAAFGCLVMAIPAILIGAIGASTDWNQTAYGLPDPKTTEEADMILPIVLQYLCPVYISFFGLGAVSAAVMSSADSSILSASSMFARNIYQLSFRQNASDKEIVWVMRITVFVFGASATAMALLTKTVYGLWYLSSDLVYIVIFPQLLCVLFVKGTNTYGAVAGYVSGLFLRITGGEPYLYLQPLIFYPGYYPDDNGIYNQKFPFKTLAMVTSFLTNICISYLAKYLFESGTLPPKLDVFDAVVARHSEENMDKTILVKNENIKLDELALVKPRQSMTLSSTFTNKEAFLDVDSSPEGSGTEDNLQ

[9] = cells; assay type: functional, cell-based
[10] = cells; assay type: functional, cell-based; remark: listed apart in the source
[11] = tested on: INS1; assay: INS-1E survival protection against cytokine death – cell-based, luminescence, retest, dose response (AID 449756); assay type: functional; conditions: Rattus norvegicus;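 also: cell death triggered by IL-1 beta plus TNF-alpha plus IFN-gamma mixture; protective hits raise ATP signal compared with cytokine alone wells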
[12] = reduction of Shn3 3'UTR-driven luciferase in osteoblasts – cell-based, Clone20 osteoblasts, firefly luciferase, cherry-picked, dose response (AID 624132); assay type: functional;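 also: firefly luciferase luminescence from reporter carrying the Shn3 3'UTR in osteoblasts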
[13] = loss of viability in HepG2 cells – cell-based, CellTiter-Glo, cherry-picked, cytotoxicity control for Shn3 inhibitor project, dose response (AID 624134); assay type: functional
[14] = target: T5, Corticotropin-releasing factor receptor 2/Corticotropin-releasing factor-binding protein (Homo sapiens, UniProt P24387+Q13324); assay: activators of CRF receptor 2 with binding protein – uHTS hits, confirmation (AID 602473); assay type: functional; conditions: read-out: EC50_Mean
T5 sequence (Q13324 whole entry): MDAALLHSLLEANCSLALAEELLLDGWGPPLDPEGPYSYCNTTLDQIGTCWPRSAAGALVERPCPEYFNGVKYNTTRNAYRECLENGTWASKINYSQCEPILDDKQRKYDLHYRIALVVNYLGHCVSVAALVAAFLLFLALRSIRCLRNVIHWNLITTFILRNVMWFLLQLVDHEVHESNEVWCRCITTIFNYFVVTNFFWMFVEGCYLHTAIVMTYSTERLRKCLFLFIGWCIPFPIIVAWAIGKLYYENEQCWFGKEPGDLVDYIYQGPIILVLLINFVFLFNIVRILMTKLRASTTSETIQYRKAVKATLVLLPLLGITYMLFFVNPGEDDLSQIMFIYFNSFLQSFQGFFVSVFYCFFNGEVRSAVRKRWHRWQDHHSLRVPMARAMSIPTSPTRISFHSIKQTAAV
T5 sequence (P24387 whole entry): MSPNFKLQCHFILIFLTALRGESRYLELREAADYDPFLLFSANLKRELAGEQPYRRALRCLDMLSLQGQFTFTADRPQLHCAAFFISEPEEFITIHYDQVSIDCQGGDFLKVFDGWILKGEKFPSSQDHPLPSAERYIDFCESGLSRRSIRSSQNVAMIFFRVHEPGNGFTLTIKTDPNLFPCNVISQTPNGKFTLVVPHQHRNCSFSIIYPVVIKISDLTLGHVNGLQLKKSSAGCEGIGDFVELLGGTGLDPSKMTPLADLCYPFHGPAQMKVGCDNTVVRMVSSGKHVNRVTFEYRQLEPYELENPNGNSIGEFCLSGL

[15] = non-specific 3'UTR reporter inhibition in Clone20-Shn3RL – cell-based, Renilla luciferase, cherry-picked, counter-screen for Shn3 inhibitor project, dose response (AID 624133); assay type: functional
[16] = Trypanosoma cruzi growth suppression in host cells – NIH3T3 host cells, beta-gal luminescence, confirmation (AID 2044); assay type: functional, cell-based;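 also: intracellular parasites grown in NIH/3T3 mouse fibroblasts as host cells; luminescent beta-galactosidase reporter signal from transgenic T. cruzi replicating inside host cells; inhibitors lower the luminescence signal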
[17] = NIH3T3 cell viability loss – ATP luminescence, mouse fibroblasts, counter-screen, dose response (AID 2010); assay type: functional, cell-based;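 also: cells exposed to compound for about 90 hours before reading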
[18] = target: Nonstructural protein 1 (Influenza A virus, UniProt Q194T2); assay type: functional, Influenza A virus (A/California/07/2009(H1N1))
Chain of Nonstructural protein 1 (Q194T2 whole entry): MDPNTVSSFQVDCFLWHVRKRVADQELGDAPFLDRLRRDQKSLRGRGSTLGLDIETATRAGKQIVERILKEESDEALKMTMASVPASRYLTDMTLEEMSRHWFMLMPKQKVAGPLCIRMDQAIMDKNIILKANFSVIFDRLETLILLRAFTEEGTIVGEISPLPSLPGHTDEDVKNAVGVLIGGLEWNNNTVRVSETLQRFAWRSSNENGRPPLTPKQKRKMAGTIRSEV

CCCCn1c(NCc2ccc3c(c2)OCO3)nc2ccccc21
CC50 [1]: 39.6 µM (active)

O=C(C[C@H]1C[C@@H]2c3cc(NS(=O)(=O)c4ccc(F)cc4)ccc3O[C@@H]2[C@H](CO)O1)NCc1ccc(Cl)cc1
AC50 [2]: 1.72 µM (active)
AC50 [3]: 5.21 µM (active)
AC50 [4]: 4.14 µM (active)

Cn1nnnc1SCC1=C(C(=O)O)N2C(=O)C(NC(=O)C3CC3c3ccccc3)C2SC1 (configuration not stated)
IC50 [5]: 11.8 µM (active)

CCCCC(O)(CCCC)C(=O)NN(C(=O)CCl)c1ccccc1
CC50 [1]: 12.1 µM (active)
AC50 [6]: 15 µM (active)
EC50 [7]: 2.45 µM (active)

CCCCc1cc(-c2nnc(S)o2)c2ccccc2n1
IC50 [8]: 13.2 µM (active)

Cc1snc(SCC(=O)NN=C(N)COc2cccc(C(F)(F)F)c2)c1C#N
EC50 [9]: > 350 µM (not active)
EC50 [10]: > 350 µM (not active)

Nc1ccc2cccc(O)c2c1
IC50 [5]: 4.61 µM (active)

CCOc1cc(C)c(S(=O)(=O)Nc2ccc3c[nH]nc3c2)cc1C
AC50 [11]: 4.13 µM (active)
AC50 [12]: 4.89 µM (active)
AC50 [13]: 36 µM (active)

CCc1cnccc1CCC(=O)Nc1ccccc1C
EC50 [9]: > 350 µM (not active)
EC50 [10]: 52 µM (active)

CCOc1ccc(NC(=O)CN2C(=O)NC(C)(c3ccc(OC(F)F)cc3)C2=O)cc1 (configuration not stated)
EC50 [14]: 13.2 µM (active)

C[C@@H]1CN([C@@H](C)CO)C(=O)c2cccc(NS(=O)(=O)c3ccccc3)c2O[C@@H]1CN(C)Cc1ccc(Cl)c(Cl)c1
AC50 [2]: 2.93 µM (active)
AC50 [3]: 4.27 µM (active)
AC50 [4]: 3.86 µM (active)

COc1cccc2sc3ccc(C#CC4(N)CCCCC4)cc3c(=O)c12
CC50 [1]: 20.1 µM (active)

C=C[C@]1(C)C=C2C(=O)[C@@]3(O)OC(=O)[C@@]4(CCCC(C)(C)[C@H]34)[C@@]2(O)CC1 [SPHAEROPSIDIN A]
AC50 [12]: 4.98 µM (active)
AC50 [13]: 12 µM (active)
AC50 [15]: 4.85 µM (active)

COc1cc(OC)cc(N(C(=O)CNC(=O)c2cccs2)C(C(=O)NCC2CCCO2)c2ccc(OC)c(OC)c2)c1 (configuration not stated)
EC50 [14]: > 53 µM (inactive)

CC1CCN(S(=O)(=O)c2ccc3c(c2)c(=O)c(C(=O)NC2CCCC2)cn3C)CC1
IC50 [8]: 12 µM (active)

COc1ccc(N2C(=O)[C@@H]3C(c4cccnc4)=NO[C@@H]3C2=O)cc1
EC50 [9]: > 350 µM (not active)
EC50 [10]: > 350 µM (not active)

COc1ccc2[nH]c(C)c(CCN(Cc3cccs3)C(S)=Nc3ccccc3)c2c1
EC50 [16]: 2.82 µM (active)
EC50 [17]: > 60 µM (not active)
IC50 [18]: > 100 µM (active)

COc1ccc(NC(=O)NNC(=O)c2ccc(-c3ccccc3)cc2)cc1
IC50 [5]: 4.6 µM (active)

COc1cc2ccccc2cc1C(=O)Nc1ccc(Cc2ccncc2)cc1
EC50 [16]: 1.99 µM (active)
CC50 [1]: 22 µM (active)
EC50 [17]: 8.08 µM (active)

Cc1ccc(S(=O)(=O)N2CCCCC2)cc1C(=O)Nc1cccnc1
IC50 [5]: 9.14 µM (active)

COc1cccc(CNc2nc(NCC3CC3)nc3ccsc23)c1
AC50 [12]: 5.86 µM (active)
AC50 [13]: 43 µM (active)
AC50 [15]: 11.2 µM (active)

COc1cc(C(=O)N2CCN(C(=O)Cc3ccccc3)CC2)cc(OC)c1OC
EC50 [9]: > 350 µM (not active)
EC50 [10]: > 350 µM (not active)
